Measured values reported in patent US5721246A, “Heterobicyclic sulfonamide and sulfonic ester derivatives” (Eisai Co., Ltd., priority 1993, dated 1998).
Values after ≈ are worked out from the molar mass of the structure shown.

Tested on: colon 38 cells
Assay: In vitro antitumor test against colon 38 cells (MTT)
Format: cell-based
Details: 72 h, concentration at which 50% of mouse colon 38 cells are inhibited, 3 days
Procedure: In vitro Antitumor Test Against Colon 38 Cells (Mouse Colon Cancer Cells)
2.5×10^3 (0.1 ml) of colon 38 cells suspended in RPMI1640 medium (a product of Sanko Junyaku) containing 10% of fetal bovine serum, penicillin (100 units/ml), streptomycin (100 μg/ml), mercaptoethanol (5×10^-5 M) and sodium pyruvate (1 mM) were inoculated in each well of a 96-well flat-bottomed microplate, and cultured in an incubator containing 5% of carbon dioxide at 37° C. for one day.
A test compound according to the present invention was dissolved in dimethyl sulfoxide in a concentration of 20 mg/ml and the resulting solution was diluted with 10% fetal bovine serum/RPMI1640 medium to a concentration of 200 μg/ml. The resulting solution was diluted with 10% fetal bovine serum/RPMI1640 medium to prepare 3-fold serial dilutions with the maximum concentration being 200 μg/ml. The obtained dilutions were each poured into the well of the above-described culture plate in an amount of 0.1 ml. The resulting plate was cultured at 37° C. in an incubator containing 5% of carbon dioxide for 3 days.
Thereafter, a solution of MTT[3-(4,5-dimethylthiazol-2-yl)-2,5-diphenyltetrazolium bromide] (having a concentration of 3.3 mg/ml) was added to each well in an amount of 0.05 ml. The resulting mixtures were further incubated for 2 hours. The supernatant was removed from each well by suction. Formed formazan was dissolved in 0.1 ml of dimethyl sulfoxide. The absorbance at 540 nm was determined with a microplate reader and the absorbance was taken as an index of the number of viable cells. The inhibitory ratio of the test compound was calculated according to the following formula to determine the IC50 of the test compound, with the IC50 referring to the concentration at which 50% of mouse colon 38 cells are inhibited: [formula] T: absorbance of well containing a test compound C: absorbance of well containing no test compound

Row | IC50 | Structure (SMILES)
1 | 0.44 µg/mL (≈ 1.27 µM) | Cc1c(Cl)cccc1S(=O)(=O)Nc1cccc2c(C#N)c[nH]c12 [Example 45]
2 | 0.35 µg/mL (≈ 0.954 µM) | CSCc1ccc(S(=O)(=O)Nc2cccc3c(Cl)c[nH]c23)cc1 [Example 15]
3 | 0.23 µg/mL (≈ 0.612 µM) | N#CCCNc1ccc(S(=O)(=O)Nc2cccc3c(Cl)c[nH]c23)cn1 [Example 71]
4 | 0.24 µg/mL (≈ 0.6 µM) | CNS(=O)(=O)c1ccc(S(=O)(=O)Nc2cccc3c(Cl)c[nH]c23)cc1 [Example 61]
5 | 0.23 µg/mL (≈ 0.672 µM) | O=S(=O)(Nc1cccc2c(Cl)c[nH]c12)c1ccc(Cl)nc1 [Example 14]
6 | 0.09 µg/mL (≈ 0.238 µM) | CC(=O)N(C)c1ccc(S(=O)(=O)Nc2cccc3c(Cl)c[nH]c23)cc1 [Example 79]
7 | 0.27 µg/mL (≈ 0.631 µM) | CN(Cc1ccc(S(=O)(=O)Nc2cccc3c(Cl)c[nH]c23)cc1)S(C)(=O)=O [Example 83]
8 | 0.23 µg/mL (≈ 0.801 µM) | N#Cc1c[nH]c2c(NS(=O)(=O)c3ccco3)cccc12 [Example 48]
9 | 0.42 µg/mL (≈ 1.01 µM) | CCS(=O)(=O)Nc1ccc(S(=O)(=O)Nc2cccc3c(Cl)c[nH]c23)cc1 [Example 70]
10 | 0.17 µg/mL (≈ 0.49 µM) | N#Cc1ccc(NS(=O)(=O)c2ccc(N)cc2)c2[nH]cc(Cl)c12 [Example 32]
11 | 0.54 µg/mL (≈ 1.49 µM) | O=S(=O)(Nc1cccc2c(Cl)c[nH]c12)c1ccc(NC2CC2)nc1 [Example 59]
12 | 0.09 µg/mL (≈ 0.244 µM) | C[S+]([O-])c1ccc(S(=O)(=O)Nc2cccc3c(Cl)c[nH]c23)cc1 (centres unmarked) [Example 24]
13 | 0.23 µg/mL (≈ 0.629 µM) | NC(=S)c1ccc(S(=O)(=O)Nc2cccc3c(Cl)c[nH]c23)cc1 [Example 64]
14 | 0.14 µg/mL (≈ 0.366 µM) | C[S+]([O-])Cc1ccc(S(=O)(=O)Nc2cccc3c(Cl)c[nH]c23)cc1 (centres unmarked) [Example 34]
15 | 0.27 µg/mL (≈ 0.799 µM) | N#Cc1c[nH]c2c(NS(=O)(=O)c3ccc(Cl)s3)cccc12 [Example 40]
16 | 0.47 µg/mL (≈ 1.14 µM) | CCNS(=O)(=O)c1ccc(S(=O)(=O)Nc2cccc3c(Cl)c[nH]c23)cc1 [Example 69]
17 | 0.47 µg/mL (≈ 1.13 µM) | CONS(=O)(=O)c1ccc(S(=O)(=O)Nc2cccc3c(Cl)c[nH]c23)cc1 [Example 43]
18 | 0.32 µg/mL (≈ 0.746 µM) | CN(C)S(=O)(=O)Nc1ccc(S(=O)(=O)Nc2cccc3c(Cl)c[nH]c23)cc1 [Example 49]

Row | IC50 | Structure (SMILES)
19 | 0.1 µg/mL (≈ 0.298 µM) | Cc1ccc(NS(=O)(=O)c2ccc(N)cc2)c2[nH]cc(Cl)c12 [Example 27]
20 | 0.18 µg/mL (≈ 0.421 µM) | CS(=O)(=O)NCCc1ccc(S(=O)(=O)Nc2cccc3c(Cl)c[nH]c23)cc1 [Example 62]
21 | 0.19 µg/mL (≈ 0.587 µM) | O=S(=O)(Nc1cccc2c(Cl)c[nH]c12)c1ccc(O)nc1 [Example 80]
22 | 0.14 µg/mL (≈ 0.338 µM) | CN(c1ccc(S(=O)(=O)Nc2cccc3c(Cl)c[nH]c23)cc1)S(C)(=O)=O [Example 52]
23 | 0.57 µg/mL (≈ 1.5 µM) | COC(=O)Nc1ccc(S(=O)(=O)Nc2cccc3c(Cl)c[nH]c23)cc1 [Example 41]
24 | 0.11 µg/mL (≈ 0.266 µM) | CS(=O)(=O)CCc1ccc(S(=O)(=O)Nc2cccc3c(Cl)c[nH]c23)cc1 [Example 36]
25 | 0.36 µg/mL (≈ 0.87 µM) | CN(C)S(=O)(=O)c1ccc(S(=O)(=O)Nc2cccc3c(Cl)c[nH]c23)cc1 [Example 74]
26 | 0.09 µg/mL (≈ 0.253 µM) | Nc1ccc(S(=O)(=O)Nc2ccc(Cl)c3c(Cl)c[nH]c23)cc1 [Example 8]
27 | 0.54 µg/mL (≈ 1.54 µM) | O=[N+]([O-])c1ccc(S(=O)(=O)Nc2cccc3c(Cl)c[nH]c23)cc1 [Example 2]
28 | 0.12 µg/mL (≈ 0.3 µM) | NS(=O)(=O)Cc1ccc(S(=O)(=O)Nc2cccc3c(Cl)c[nH]c23)cc1 [Example 63]
29 | 0.17 µg/mL (≈ 0.45 µM) | CC(=O)Nc1ccc(S(=O)(=O)Nc2ccc(C)c3c(Cl)c[nH]c23)cc1 [Example 26]
30 | 0.17 µg/mL (≈ 0.391 µM) | NS(=O)(=O)Cc1ccc(S(=O)(=O)Nc2ccc(Cl)c3c(Cl)c[nH]c23)cc1 [Example 77]
31 | 0.14 µg/mL (≈ 0.338 µM) | NS(=O)(=O)CCc1ccc(S(=O)(=O)Nc2cccc3c(Cl)c[nH]c23)cc1 [Example 35]
32 | 0.26 µg/mL (≈ 0.644 µM) | CS(=O)(=O)CCc1ccc(S(=O)(=O)Nc2cccc3c(C#N)c[nH]c23)cc1 [Example 78]
33 | 0.66 µg/mL (≈ 1.94 µM) | O=S(=O)(Nc1cccc2c(Cl)c[nH]c12)c1ccc(S)nc1 [Example 57]
34 | 0.25 µg/mL (≈ 0.566 µM) | CN(CCc1ccc(S(=O)(=O)Nc2cccc3c(Cl)c[nH]c23)cc1)S(C)(=O)=O [Example 81]
35 | 0.59 µg/mL (≈ 1.96 µM) | Cn1cnc(S(=O)(=O)Nc2cccc3c(C#N)c[nH]c23)c1 [Example 55]
